Measured values published in US20230150951A1, “2,5- OR 2,6-DISUBSTITUTED HYDROQUINONE DERIVATIVES WITH AT LEAST ONE CARBOXY, SULFO OR AMIDO GROUP USEFUL AS MEDICAMENTS” (OM PHARMA SA, priority 2020, published 2023).

Assays:
Format in all cases: cell-based
FGF-1 = molecular target: T1, FGF-1 (Homo sapiens, UniProt P05230); assay: FGF-1 induced sprouting of HUVEC, spheroid-based cellular angiogenesis assay; conditions: FGF-1 25 ng/mL preincubated with compound, 24 h
T1 construct: purchased Peprotech 100-17A
Experimental: (§1) Aim of this in vitro method is to assess compounds effects on FGF-2, FGF-1, or VEGF-A induced sprouting of human umbilical vein endothelial cells (HUVEC) in the spheroid-based cellular angiogenesis assay. Before adding the growth factors to the cells, they were preincubated with the compound. Sunitinib was tested as a control (without preincubation).
(§2) IC50 values determined for the tested compounds are expressed in microM [μM] and the values for the inhibition of FGF-1, FGF2 and VEGF-A induced growth (sprouting) are listed after each compound in the examples after chemical characterization.
(§3) Sprouting test was performed on the compounds dissolved in DMSO to reach 100-fold concentrated stock solutions and dissolved in culture media. Sunitinib as reference compound was provided by ProQinase GmbH. Growth factors were purchased from rhFGF-basic (FGF-2), Peprotech, New Jersey, USA, #100-18C, Lot #0415571; rhFGF-acidic (FGF-1), Peprotech, New Jersey, USA, #100-17A, Lot #031207; hVEGF-A165 (ProQinase GmbH, Freiburg, Germany; 05.02.2010) were used for stimulation of HUVEC cells growth.
(§4) Test system: Endothelial cells from human umbilical vein (HUVEC) from pooled donors were stored frozen with 70% medium, 20% FCS, 10% DMSO at about 1×10^6 cells/ampoule. HUVEC cells, primary human umbilical vein endothelial cells (PromoCell, Heidelberg, Germany), were used after passage 3 to 4. Morphology of the cells are adherent, cobblestone-like growing as monolayer and were cultured in endothelial cell growth and basal medium (ECGM/ECBM, PromoCell). The subculture was split 1:3; every 3-5 days, seed out at ca. 1×10^4 cells/cm^2 and incubated at 37° C. with 5% CO2 with a doubling time 24-48 hours
(§5) Dilution of test compounds: 100× concentrated solutions (concerning to the final assay concentrations) of each test compound were prepared with the appropriate solvent (in DMSO or in water). These 100×compound solutions were further diluted in endothelial cell growth and basal medium (ECBM) 1:7.5 to get a 13.33× concentrated solution. 75 μl of the 13.33×solution was subsequently mixed with 25 μl of 40× concentrated stimulus (solved in ECBM), resulting in a 10×concentrated stimulus/compound mixture. This mixture (100 μl) was incubated for 30 min at 37° C. and then added to 900 μl gel, containing the HUVEC spheroids (resulting in the final assay concentration).
(§6) Test method: the experiments were pursued in modification of the originally published protocol (Korff and Augustin: J Cell Sci 112: 3249-58, 1999). In brief, spheroids were prepared as described (Korff and Augustin: J Cell Biol 143: 1341-52, 1998) by pipetting 400 HUVEC in a hanging drop on plastic dishes to allow overnight spheroid aggregation. 50 HUVEC spheroids were then seeded in 0.9 ml of a collagen gel and pipetted into individual wells of a 24 well plate to allow polymerization. The test compounds were preincubated with the growth factors (FGF-1, FGF-2 or VEGF-A final concentration 25 ng/mL) in a 10-fold concentrated solution and subsequently, 100 μl of this solution was added on top of the polymerized gel. All compounds were diluted in solvent (DMSO or water) as 100×stocks first (which means 100×stocks of each final assay concentration were prepared in solvent). Subsequently, these stocks were further diluted in medium (resulting in the 13.33×stocks of each final assay concentration) with final concentrations tested: 100, 50, 25, 12.5, 6.25, 3.13 and 1.56×10^−6 M). Plates were incubated at 37° C. for 24 hours and fixed by adding 4% PFA (Roth, Karlsruhe, Germany).
(§7) Quantification of growth factor inhibition: sprouting intensity of HUVEC spheroids treated with the growth factor and the inhibitors were quantitated by an image analysis system determining the cumulative sprout length per spheroid (CSL).

FGF-2 = molecular target: T2, FGF-2 (Homo sapiens, UniProt P09038); assay: FGF-2 induced sprouting of HUVEC, spheroid-based cellular angiogenesis assay; conditions: FGF-2 25 ng/mL preincubated with compound, 24 h
T2 construct: purchased Peprotech 100-18C
Experimental: as §1, §2, §3, §4, §5, §6, §7

VEGFR-2 = molecular target: T3, VEGFR-2 (Homo sapiens, UniProt P35968); assay: VEGF-165 induced phosphorylation of VEGF-Receptor on HUVEC; conditions: HUVEC preincubated 60 min, VEGF165 25 ng/mL 2 min; read-out: VEGFR-Phosphorylation inhibition IC50
T3 construct: endogenous in cells; host or cells: primary HUVEC
Experimental: Cell culture: Primary human umbilical vein endothelial cells (HUVECs) were routinely cultured in 0.1% gelatin pre-coated flasks or dishes, up to passage 6. […]
Rabbit primary antibodies for VEGFR-2, p-Tyr1175 were acquired from Cell Signaling Technology (Leiden, The Netherlands). Phospho-VEGFR-2 (Tyr1175) Sandwich ELISA Kit was from Cell Signaling Technology.
[…] Western blot analysis was performed using anti-phospho-VEGFR-2 antibody and total VEGFR-2 was used as a loading control after membrane stripping.
Inhibition of VEGFR-2-phosphorylation results are expressed as IC50 in microM [μM] versus VEGF-treated HUVECs control without inhibitory compound.

Human neutrophils [1] = assay: Inhibition of ROS production in human neutrophils (isoluminol chemiluminescence); conditions: Homo sapiens, Neutrophil, fMLP+TNF-α stimulated PMN
Excerpt: NADPH oxidase, located in the plasma membrane and in the membranes of specific granules, produces superoxide anions from which other ROS, such as hydrogen peroxide, singlet oxygen, hypochlorite, and active hydroxyl radicals. ROS are released into the surrounding medium or into a membrane-enclosed subcellular organelle. One quick and sensitive method for measuring the generation of these metabolites is chemiluminescence (CL). Isoluminol amplified CL technique, is very sensitive and widely used to study respiratory burst (mainly extracellular production of ROS) induced in neutrophils.
Human neutrophils were isolated from buffy coats which obtained from healthy donors. The isolated neutrophils (3×10^6/ml) were suspended in Hanks' Balanced Salt Solution (HBSS) with Calcium and Magnesium. Neutrophils were pre-incubated with the compounds at different concentrations (0.1, 0.3, 1, 3 and 10 μM) for 30 min at 37° C. The black 96-well cell culture plates were coated with human fibrinogen (0.25 mg/ml in PBS), and incubated overnight at 4° C. or 2 hr at 37° C. Then the plates were washed with endotoxin-free PBS. The neutrophils were incubated (priming) with TNF-α (20 ng/ml) for 10 minutes at 37° C. Thereupon the 75 μl of cell suspension and 75 μl (Isoluminol+HRP solution) were added to each well. The chemiluminescence was recorded (every 25 sec for 250 sec) after fMLP (1 μM) activation using a Multilabel Reader victor3 (Perkin Elmer, USA). Background values, defined as the mean chemiluminescent values of isoluminol diluted in HBSS, were subtracted from all readings (CPS, count per second). The assays were done in duplicate or triplicate.

Human neutrophils [2] = assay: Neutrophil adhesion under static conditions; conditions: fMLP-stimulated adhesion to fibrinogen; method: 40 μM and 80 μM, concentration of the value not stated
Experimental: Human neutrophils obtained from buffy coats of healthy donors were suspended at 3×10^6/ml in adhesion buffer (PBS containing 1 mM CaCl2)/MgCl2 and 10% FCS, pH 7.2). Neutrophils were preincubated for 30 min at 37° C. with 40 μM and 80 μM of the compounds.
Adhesion assays were performed on 18-well glass slides coated for 18 h at 4° C. with human fibrinogen (20 μg/well in endotoxin-free PBS); 20 μl of cell suspension were added to each well and stimulated for 1 min at 37° C. with 5 μl of fMLP 1 nM final concentration. After washing, adherent cells were fixed in glutaraldehyde 1.5% in PBS and counted by computer-assisted enumeration. Statistical analysis was performed by calculating mean and standard deviation (SD); significance was calculated by unpaired t-test. All statistical analyses were performed using GraphPad Prism 6 (GraphPad Software).

T2 sequence (P09038 134-288): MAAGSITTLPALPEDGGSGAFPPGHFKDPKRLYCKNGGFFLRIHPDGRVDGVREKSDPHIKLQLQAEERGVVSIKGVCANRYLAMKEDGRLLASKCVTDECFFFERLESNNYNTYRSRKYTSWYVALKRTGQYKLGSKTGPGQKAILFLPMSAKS
T3 sequence (P35968 20-1356): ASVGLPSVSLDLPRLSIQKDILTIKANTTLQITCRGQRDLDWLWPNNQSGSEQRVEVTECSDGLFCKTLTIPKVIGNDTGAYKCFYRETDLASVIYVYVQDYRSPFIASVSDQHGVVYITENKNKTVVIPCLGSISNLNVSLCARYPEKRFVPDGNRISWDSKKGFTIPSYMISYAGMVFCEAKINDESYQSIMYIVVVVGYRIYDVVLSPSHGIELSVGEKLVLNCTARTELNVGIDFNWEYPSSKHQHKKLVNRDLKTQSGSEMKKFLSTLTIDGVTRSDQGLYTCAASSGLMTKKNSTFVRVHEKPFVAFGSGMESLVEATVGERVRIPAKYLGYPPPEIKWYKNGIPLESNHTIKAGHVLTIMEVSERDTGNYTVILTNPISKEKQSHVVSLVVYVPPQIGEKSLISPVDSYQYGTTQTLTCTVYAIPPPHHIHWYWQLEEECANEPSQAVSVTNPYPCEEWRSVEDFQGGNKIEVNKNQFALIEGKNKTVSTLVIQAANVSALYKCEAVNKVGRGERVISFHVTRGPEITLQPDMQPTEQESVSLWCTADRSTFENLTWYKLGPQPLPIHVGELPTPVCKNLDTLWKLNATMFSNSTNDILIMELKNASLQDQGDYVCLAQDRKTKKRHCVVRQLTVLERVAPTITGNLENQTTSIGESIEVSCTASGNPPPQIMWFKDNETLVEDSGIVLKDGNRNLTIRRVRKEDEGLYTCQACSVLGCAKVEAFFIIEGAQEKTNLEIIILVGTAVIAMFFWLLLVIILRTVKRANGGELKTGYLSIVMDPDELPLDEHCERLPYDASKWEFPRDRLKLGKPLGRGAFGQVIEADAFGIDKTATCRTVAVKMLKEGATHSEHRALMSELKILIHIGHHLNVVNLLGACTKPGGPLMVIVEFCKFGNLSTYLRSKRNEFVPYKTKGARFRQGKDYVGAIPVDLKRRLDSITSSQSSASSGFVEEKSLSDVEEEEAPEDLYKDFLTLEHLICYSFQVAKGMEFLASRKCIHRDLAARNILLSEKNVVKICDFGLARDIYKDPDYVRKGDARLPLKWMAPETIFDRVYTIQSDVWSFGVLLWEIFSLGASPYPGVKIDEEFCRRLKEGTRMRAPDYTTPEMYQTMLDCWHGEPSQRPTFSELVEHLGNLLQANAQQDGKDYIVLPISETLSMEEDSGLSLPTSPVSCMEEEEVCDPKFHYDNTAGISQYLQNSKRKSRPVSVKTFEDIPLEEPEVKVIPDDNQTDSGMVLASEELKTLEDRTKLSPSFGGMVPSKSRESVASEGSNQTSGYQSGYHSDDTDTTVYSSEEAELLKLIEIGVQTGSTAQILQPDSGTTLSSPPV
T1 sequence (P05230 whole entry): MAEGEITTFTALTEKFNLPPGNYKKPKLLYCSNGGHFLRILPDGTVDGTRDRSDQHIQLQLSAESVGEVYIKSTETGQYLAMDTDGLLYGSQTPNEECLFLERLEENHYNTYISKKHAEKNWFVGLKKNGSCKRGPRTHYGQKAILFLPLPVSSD

IC50 (FGF-1) [µM]	IC50 (FGF-2) [µM]	IC50 (VEGFR-2) [µM]	IC50 (Human neutrophils [1]) [µM]	SMILES	inhibition at 0.3 µM (Human neutrophils [1]) [%]	Neutrophil adhesion inhibition (Human neutrophils [2]) [%]
60	165	≥ 100	1.32	O=C(O)Cc1cccc(NC(=O)c2cc(O)c(C(=O)O)cc2O)c1 [Ia-033a, 4-(3-(carboxymethyl)phenylaminocarbonyl)-2,5-dihydroxybenzoic acid]	57.7	38
20	71	36	0.41	O=C(O)c1cc(O)c(C(=O)NCc2ccc(O)c(O)c2)cc1O [Ia-035a, 4-(3,4-Dihydroxyphenylmethylaminocarbonyl)-2,5-dihydroxybenzoic acid]	75.1	27
47	50	3.61	1	O=C(O)c1cc(O)c(CS(=O)(=O)Cc2cc(O)c(C(=O)O)cc2O)cc1O [IIIc-059a, 4-((2,5-Dihydroxy-4-carboxyphenyl)methylsulfonylmethyl)-2,5-dihydroxybenzoic acid]	66.4	14.67
35	32	4.9	0.914	O=C(O)Cc1cccc(NC(=O)c2cc(O)cc(C(=O)O)c2O)c1 [IIa-033a, 3-(3-(carboxymethyl)phenylaminocarbonyl)-2,5-dihydroxybenzoic acid]	50.6	11.75
35	36	6.1		CCOC(=O)c1cc(O)c(C(=O)Nc2ccc(O)c(C(=O)OC)c2)cc1O [Ia-004a-E2, ethyl 2,5-dihydroxy-4-(4-hydroxy-3-(methoxycarbonyl)phenylaminocarbonyl)benzoate]	85.3	97.65
23	49	0.25	7.9	COC(=O)c1cc(NC(=O)c2cc(O)c(C(=O)Nc3ccc(O)c(C(=O)OC)c3)cc2O)ccc1O [Ic-007a-E2, methyl 5-(2,5-dihydroxy-4-(4-hydroxy-3-(methoxycarbonyl)phenylaminocarbonyl)benzamido)-2-hydroxybenzoate]	21.3	2
47	33	≥ 100	1	O=C(O)c1cc(NC(=O)c2cc(O)cc(C(=O)O)c2O)ccc1O [IIa-004a, 3-(3-carboxy-4-hydroxyphenylaminocarbonyl)-2,5-dihydroxybenzoic acid]	63.5	36

Second part, the compound before the results:

SMILES	IC50 (FGF-1) [µM]	IC50 (FGF-2) [µM]	IC50 (VEGFR-2) [µM]	IC50 (Human neutrophils [1]) [µM]	inhibition at 0.3 µM (Human neutrophils [1]) [%]	Neutrophil adhesion inhibition (Human neutrophils [2]) [%]
CCOC(=O)c1cc(O)cc(C(=O)Nc2ccccc2-c2nnn[nH]2)c1O [IIa-001aTz-E1, ethyl 3-(2-(1H-tetrazol-5-yl)phenylaminocarbonyl)-2,5-dihydroxybenzoate]	≥ 200	42	≥ 100		68.9	81.94
COC(=O)c1cc(O)ccc1NC(=O)c1cc(O)c(C(=O)Nc2ccc(O)cc2C(=O)OC)cc1O [Ic-009a-E2, methyl 2-(2,5-dihydroxy-4-(4-hydroxy-2-(methoxycarbonyl)phenylaminocarbonyl)benzamido)-5-hydroxybenzoate]	23	30	0.02		24.1	41.05
O=C(O)c1ccccc1NC(=O)c1cc(O)cc(C(=O)O)c1O [IIa-001a, 3-(2-carboxyphenylaminocarbonyl)-2,5-dihydroxybenzoic acid]	8.6	11	≥ 100	0.408	30.5	36.24
O=C(O)c1ccc(NC(=O)c2cc(O)cc(C(=O)O)c2O)cc1 [IIa-003a, 3-(4-carboxyphenylaminocarbonyl)-2,5-dihydroxybenzoic acid]	22	13	2.5		59.3	35.27
O=C(O)c1cc(O)cc(C(=O)Nc2cccc(C(=O)O)c2C(=O)O)c1O [IIa-011a, 3-(3-carboxy-2,5-dihydroxybenzamido)phthalic acid]	141	123	≥ 100	1.18	58.1	26
